The source of these data is patent US8299048B2, “Hexahydrocyclopentyl[f]indazole sulfonamides and derivatives thereof as selective glucocorticoid receptor modulators” (Merck Sharp & Dohme Corp., priority 2008, dated 2012).

Read-outs that look alike come from different tables or passages of the source. Some results are limits rather than exact numbers.

The target of the assay is T1, human GR (Homo sapiens, UniProt P04150).
T1 sequence (P04150 1-777): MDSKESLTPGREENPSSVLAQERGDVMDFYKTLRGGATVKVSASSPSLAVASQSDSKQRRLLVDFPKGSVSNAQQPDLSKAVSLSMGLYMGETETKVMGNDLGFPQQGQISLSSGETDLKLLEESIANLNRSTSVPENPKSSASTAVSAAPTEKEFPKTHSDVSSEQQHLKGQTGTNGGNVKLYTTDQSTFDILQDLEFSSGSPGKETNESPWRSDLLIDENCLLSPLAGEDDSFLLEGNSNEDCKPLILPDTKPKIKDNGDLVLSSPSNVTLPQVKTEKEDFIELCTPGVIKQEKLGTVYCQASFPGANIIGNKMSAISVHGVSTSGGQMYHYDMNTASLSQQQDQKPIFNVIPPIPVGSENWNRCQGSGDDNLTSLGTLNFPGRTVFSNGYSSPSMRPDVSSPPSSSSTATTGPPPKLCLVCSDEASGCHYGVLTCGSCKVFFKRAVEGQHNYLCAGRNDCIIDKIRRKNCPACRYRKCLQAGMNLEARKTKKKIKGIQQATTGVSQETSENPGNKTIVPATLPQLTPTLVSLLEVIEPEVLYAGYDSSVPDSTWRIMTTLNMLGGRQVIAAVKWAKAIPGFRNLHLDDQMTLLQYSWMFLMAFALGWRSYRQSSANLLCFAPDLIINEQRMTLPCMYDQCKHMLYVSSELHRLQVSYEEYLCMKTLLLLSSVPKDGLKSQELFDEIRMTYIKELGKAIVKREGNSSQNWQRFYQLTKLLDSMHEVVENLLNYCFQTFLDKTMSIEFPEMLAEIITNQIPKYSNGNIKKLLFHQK
Kind of assay: Transrepression Assay (GITAR), TNFα-β-lactamase reporter in U937 cells. The format is cell-based. The arrangement: U937 cells contain an endogenous glucocorticoid receptor (GR); endogenous in cells; host or cells: U937 cells stably transfected with the TNF-alpha promoter/beta-lactamase reporter. The note with it: for GITAR > GRAMM % SEP: GITAR Emax minus GRAMMER Emax; for EC50: U937 cells, inflection point, read-out: Transrepression U937 Cells GITAR IP. A digest of the protocol:
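First, U937 reporter cells (TNF-α promoter–β-lactamase, native GR) received compound for 30–45 min at 37 °C. Next, PMA (5 ng/ml) and LPS (100 ng/ml) final were added for about 18 hr. Finally, CCF2-AM loading gave the read-out, with 100 nM dexamethasone as 100%.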

Where [1] appears, read: U-937, U937 cells, maximum activity, read-out: Transrepression U937 Cells GITAR Emax.
The mark [2] stands for this setting: U-937, activity repressed by 100 nM dexamethasone alone set as 100%, read-out: maximal activity in the transrepression (GITAR) assay.

For `CCCCCCCCS(=O)(=O)N(CCc1ccccc1F)C[C@H]1CCC2=Cc3c(cnn3-c3ccc(F)cc3)C[C@@]21C` [Example 104, N-[2-(2-fluorophenyl)ethyl]-N-{[(4αR,5S)-1-(4-fluorophenyl)-4α-methyl-1,4,4α,5,6,7-hexahydrocyclopenta[f]indazol-5-yl]methyl}octane-1-sulfonamide], the “GITAR > GRAMM % SEP” value is listed as 1.0% and the EC50 is 153 nM. Besides, the Emax under setting [1] is 10.2%. Moreover, the Emax under setting [2] is more than 5%.
The like results for `C[C@]12Cc3cnn(-c4ccc(F)cc4)c3C=C1CC[C@@H]2CN(CCc1ccccc1F)S(=O)(=O)Cc1ccc(Cl)cc1Cl` [Example 105, 1-(2,4-dichlorophenyl)-N-[2-(2-fluorophenyl)ethyl]-N-{[(4αR,5S)-1-(4-fluorophenyl)-4α-methyl-1,4,4α,5,6,7-hexahydrocyclopenta[f]indazol-5-yl]methyl}methanesulfonamide] were, in that order, 3.3%, 109 nM, 88.8% and more than 5%.
Regarding `C[C@]12Cc3cnn(-c4ccc(F)cc4)c3C=C1CC[C@@H]2CN(CCc1ccccc1F)S(=O)(=O)Cc1cccc(Cl)c1` [Example 106, 1-(3-chlorophenyl)-N-[2-(2-fluorophenyl)ethyl]-N-{[(4αR,5S)-1-(4-fluorophenyl)-4α-methyl-1,4,4α,5,6,7-hexahydrocyclopenta[f]indazol-5-yl]methyl}methanesulfonamide], the “GITAR > GRAMM % SEP” value is on record as 2.5% and the EC50 was found to be 44.1 nM. Moreover, the Emax under setting [1] came out at 85.3%. Besides, the Emax under setting [2] was more than 5%.
The like results for `C[C@]12Cc3cnn(-c4ccc(F)cc4)c3C=C1CC[C@@H]2CN(CCc1ccccc1F)S(=O)(=O)Cc1ccccc1Cl` [Example 107, 1-(2-chlorophenyl)-N-[2-(2-fluorophenyl)ethyl]-N-{[(4αR,5S)-1-(4-fluorophenyl)-4α-methyl-1,4,4α,5,6,7-hexahydrocyclopenta[f]indazol-5-yl]methyl}methanesulfonamide] were, in that order, 11.4%, 54.1 nM, 84.4% and more than 5%.
Take `C[C@]12Cc3cnn(-c4ccc(F)cc4)c3C=C1CC[C@@H]2CN(CCc1ccccc1F)S(=O)(=O)Cc1ccccc1C(F)(F)F` [Example 108, N-[2-(2-fluorophenyl)ethyl]-N-{[(4αR,5S)-1-(4-fluorophenyl)-4α-methyl-1,4,4α,5,6,7-hexahydrocyclopenta[f]indazol-5-yl]methyl}-1-[2-(trifluoromethyl)phenyl]methanesulfonamide]: the “GITAR > GRAMM % SEP” value was 24.6% and the EC50 came out at 185 nM. For the same compound, the Emax under setting [1] was determined as 70.5%. The Emax under setting [2] is more than 5%.
Taken in the same sequence, the figures for `CC(C1CCC2=Cc3c(cnn3-c3ccc(F)cc3)C[C@@]21C)N(CC1CC1)S(=O)(=O)CC(F)(F)F` (stereo partly drawn) [Example 109, N-(cyclopropylmethyl)-2,2,2-trifluoro-N-{1-[(4αR)-1-(4-fluorophenyl)-4α-methyl-1,4,4α,5,6,7-hexahydrocyclopenta[f]indazol-5-yl]ethyl}ethanesulfonamide] were 37.0%, 190 nM, 91.1% and more than 5%.
Turning to `C[C@]12Cc3cnn(-c4ccc(F)cc4)c3C=C1CC[C@@H]2CN(CC1CCCO1)S(=O)(=O)Cc1cccc(C(F)(F)F)c1` (stereo partly drawn) [Example 110, N-{[(4αR,5S)-1-(4-fluorophenyl)-4α-methyl-1,4,4α,5,6,7-hexahydrocyclopenta[f]indazol-5-yl]methyl}-N-(tetrahydrofuran-2-ylmethyl)-1-[3-(trifluoromethyl)phenyl]methanesulfonamide], the “GITAR > GRAMM % SEP” value is listed as 21.3% and the EC50 was determined as 626 nM. In addition, the Emax under setting [1] stood at 26.2%. Besides, the Emax under setting [2] is more than 5%.
Taken in the same sequence, the figures for `C[C@]12Cc3cnn(-c4ccc(F)cc4)c3C=C1CC[C@@H]2CN(CCc1ccccc1F)S(=O)(=O)Cc1ccc(Cl)c(Cl)c1` [Example 111, 1-(3,4-dichlorophenyl)-N-[2-(2-fluorophenyl)ethyl]-N-{[(4αR,5S)-1-(4-fluorophenyl)-4α-methyl-1,4,4α,5,6,7-hexahydrocyclopenta[f]indazol-5-yl]methyl}methanesulfonamide] were 38.1%, 325 nM, 75.7% and more than 5%.
The like results for `C[C@H](O)CN(C[C@H]1CCC2=Cc3c(cnn3-c3ccc(F)cc3)C[C@@]21C)S(=O)(=O)c1ccc(F)c(Cl)c1` [Example 112, 3-chloro-4-fluoro-N-{[(4αR,5S)-1-(4-fluorophenyl)-4α-methyl-1,4,4α,5,6,7-hexahydrocyclopenta[f]indazol-5-yl]methyl}-N-[(2S)-2-hydroxypropyl]benzenesulfonamide] were, in that order, 32.3%, 337 nM, 65.7% and more than 5%.
The like results for `C[C@H](O)CN(C[C@H]1CCC2=Cc3c(cnn3-c3ccc(F)cc3)C[C@@]21C)S(=O)(=O)CC(F)(F)F` [Example 113] were, in that order, 8.7%, 59 nM, 94% and more than 5%.
For the compound `C[C@@H](CN(C[C@H]1CCC2=Cc3c(cnn3-c3ccc(F)cc3)C[C@@]21C)S(=O)(=O)CC(F)(F)F)OS(=O)(=O)CC(F)(F)F` [Example 114, (1S)-2-{{[(4αR,5S)-1-(4-fluorophenyl)-4α-methyl-1,4,4α,5,6,7-hexahydrocyclopenta[f]indazol-5-yl]methyl}[(2,2,2-trifluoroethyl)sulfonyl]amino}-1-methylethyl 2,2,2-trifluoroethanesulfonate], the “GITAR > GRAMM % SEP” value is 18.2% and the EC50 came to 148 nM. Under setting [1], the Emax turned out to be 98.5%. In addition, under setting [2], the Emax was more than 5%.
Taken in the same sequence, the figures for `C[C@@H](O)CN(C[C@H]1CCC2=Cc3c(cnn3-c3ccc(F)cc3)C[C@@]21C)S(=O)(=O)c1ccc(F)c(Cl)c1` [Example 115, 3-chloro-4-fluoro-N-{[(4αR,5S)-1-(4-fluorophenyl)-4α-methyl-1,4,4α,5,6,7-hexahydrocyclopenta[f]indazol-5-yl]methyl}-N-[(2R)-2-hydroxypropyl]benzenesulfonamide] were 31.2%, 643 nM, 57.4% and more than 5%.
Consider `C[C@]12Cc3cnn(-c4ccc(F)cc4)c3C=C1CC[C@@H]2CN(CCc1ccccc1O)S(=O)(=O)c1ccccc1F` [Example 116, 2-fluoro-N-{[(4αR,5S)-1-(4-fluorophenyl)-4α-methyl-1,4,4α,5,6,7-hexahydrocyclopenta[f]indazol-5-yl]methyl}-N-[2-(2-hydroxyphenyl)ethyl]benzenesulfonamide], for which the “GITAR > GRAMM % SEP” value stood at 7.7% and the EC50 stood at 94.9 nM. In addition, the Emax under setting [1] was determined as 81.2%. The Emax under setting [2] was more than 5%.
With `C[C@]12Cc3cnn(-c4ccc(F)cc4)c3C=C1CC[C@@H]2CN(CCO)S(=O)(=O)c1ccccc1C(N)=O` [Example 117, 2-{[{[(4αR,5S)-1-(4-fluorophenyl)-4α-methyl-1,4,4α,5,6,7-hexahydrocyclopenta[f]indazol-5-yl]methyl}(2-hydroxyethyl)amino]sulfonyl}benzamide], the “GITAR > GRAMM % SEP” value was found to be 28.6% and the EC50 came out at 533 nM. The Emax under setting [1] turned out to be 73.7%. In addition, under setting [2], the Emax was more than 5%.
The like results for `COCCN(C[C@H]1CCC2=Cc3c(cnn3-c3ccc(F)cc3)C[C@@]21C)S(=O)(=O)CCN1C(=O)c2ccccc2C1=O` [Example 118, 2-(1,3-dioxo-1,3-dihydro-2H-isoindol-2-yl)-N-{[(4αR,5S)-1-(4-fluorophenyl)-4α-methyl-1,4,4α,5,6,7-hexahydrocyclopenta[f]indazol-5-yl]methyl}-N-(2-methoxyethyl)ethanesulfonamide] were, in that order, 25.4%, 1050 nM, 34.1% and more than 5%.
